Laboratory results from patent US20150322051A1, “Macrocyclic picolinamides as fungicides” (Dow AgroSciences LLC, priority 2014, published 2015).
Where two headings read alike, the source gives them in different places.

Assays:
[1] = system: Mycosphaerella graminicola; anamorph: Septoria tritici (SEPTTR); assay: Leaf blotch of wheat (SEPTTR) whole-plant fungicidal test; type: in vivo; details: Zymoseptoria tritici, topical; for pest or weed control at 121.5 g/ha: low volume (track spray) application, 121.5 g/H; for pest or weed control at 100 ppm: high volume application
Description: (§1) All fungicides were evaluated using the aforementioned method for their activity vs. all target diseases, unless stated otherwise. Wheat leaf blotch and brown rust activity were also evaluated using track spray applications, in which case the fungicides were formulated as EC formulations, containing 0.1% Trycol 5941 in the spray solutions. Wheat plants (variety Yuma) were grown from seed in a greenhouse in 50% mineral soil/50% soil-less Metro mix until the first leaf was fully emerged, with 7-10 seedlings per pot. These plants were inoculated with an aqueous spore suspension of Septoria tritici either prior to or after fungicide treatments. After inoculation the plants were kept in 100% relative humidity (one day in a dark dew chamber followed by two to three days in a lighted dew chamber at 20° C.) to permit spores to germinate and infect the leaf. The plants were then transferred to a greenhouse set at 20° C. for disease to develop. When disease symptoms were fully expressed on the 1st leaves of untreated plants, infection levels were assessed on a scale of 0 to 100 percent disease severity. Percent disease control was calculated using the ratio of disease severity on treated plants relative to untreated plants.

[2] = system: Puccinia triticina; synonym: Puccinia recondita f. sp. tritici (PUCCRT); assay: Wheat brown rust (PUCCRT) whole-plant fungicidal test; type: in vivo; details: topical; for pest or weed control at 121.5 g/ha: low volume (track spray) application, 121.5 g/H; for pest or weed control at 100 ppm: high volume application
Description: as §1, with “plants. Wheat plants (variety Yuma) were grown from seed in a greenhouse in 50% mineral soil/50% soil-less Metro mix until the first leaf was fully emerged, with 7-10 seedlings per pot. These plants were inoculated with an aqueous spore suspension of Puccinia triticina either prior to or after fungicide treatments. […] The plants were then transferred to a greenhouse set at 24° C. for disease to develop. Fungicide formulation, application and disease assessment followed the procedures as described in the Example A.” for “plants.”

[3] = 24 h, 1 Day Protectant, read-out: Low Volume activity at 121.5 g/H SEPTTR 1DP (% disease control rating)
[4] = 72 h, 3 Day Curative, read-out: Low Volume activity at 121.5 g/H SEPTTR 3DC (% disease control rating)
[5] = 24 h, 1 Day Protectant, read-out: Low Volume activity at 121.5 g/H PUCCRT 1DP (% disease control rating)
[6] = 72 h, 3 Day Curative, read-out: Low Volume activity at 121.5 g/H PUCCRT 3DC (% disease control rating)
[7] = 24 h, 1 Day Protectant, read-out: High Volume activity at 100 ppm SEPTTR 1DP (% disease control rating)
[8] = 72 h, 3 Day Curative, read-out: High Volume activity at 100 ppm SEPTTR 3DC (% disease control rating)
[9] = 24 h, 1 Day Protectant, read-out: High Volume activity at 100 ppm PUCCRT 1DP (% disease control rating)
[10] = 72 h, 3 Day Curative, read-out: High Volume activity at 100 ppm PUCCRT 3DC (% disease control rating)

Structure (SMILES)	pest or weed control at 121.5 g/ha [1, 3]	pest or weed control at 121.5 g/ha [1, 4]	pest or weed control at 121.5 g/ha [2, 5]	pest or weed control at 121.5 g/ha [2, 6]	pest or weed control at 100 ppm [1, 7]	pest or weed control at 100 ppm [1, 8]	pest or weed control at 100 ppm [2, 9]	pest or weed control at 100 ppm [2, 10]
COc1ccnc(C(=O)N[C@H]2CCC[C@H](Cc3ccc(C(F)(F)F)cc3)[C@@H](CC(C)C)[C@H](C)OC2=O)c1OC(C)=O [Compound 22]	> 70%	< 70%	> 70%	< 70%	–	–	–	–
COc1ccnc(C(=O)N[C@H]2CCC[C@H](Cc3ccc(C(F)(F)F)cc3)[C@@H](Cc3ccc(F)cc3)[C@H](C)OC2=O)c1OC(C)=O [Compound 40]	> 70%	< 70%	< 70%	< 70%	–	–	–	–
COc1ccnc(C(=O)N[C@H]2CCC[C@H](Cc3ccc(Cl)cc3)[C@@H](C3CCCC3)[C@H](C)OC2=O)c1OCOC(C)=O [Compound 29]	> 70%	> 70%	> 70%	< 70%	–	–	–	–
CCC[C@H]1CCC[C@H](NC(=O)c2nccc(OC)c2OC(C)=O)C(=O)O[C@@H](C)[C@@H]1Cc1ccccc1 [Compound 38]	> 70%	> 70%	> 70%	> 70%	–	–	–	–
COc1ccnc(C(=O)N[C@H]2CCC[C@H](CCC(C)C)[C@@H](C3CCCC3)[C@H](C)OC2=O)c1OCOC(=O)C(C)C [Compound 44]	> 70%	> 70%	> 70%	< 70%	–	–	–	–
COc1ccnc(C(=O)N[C@H]2CCC[C@H](Cc3ccc(C(F)(F)F)cc3)[C@@H](Cc3ccc(OC(F)(F)F)cc3)[C@H](C)OC2=O)c1OCOC(C)=O [Compound 65]	< 70%	< 70%	< 70%	< 70%	–	–	–	–
COc1ccnc(C(=O)N[C@H]2CCC[C@H](Cc3ccc(Cl)cc3)[C@@H](CC(C)C)[C@H](C)OC2=O)c1OC(C)=O [Compound 13]	> 70%	> 70%	> 70%	< 70%	–	–	–	–
COc1ccnc(C(=O)N[C@H]2CCC[C@H](CCCc3ccccc3)[C@@H](CCc3ccccc3)[C@H](C)OC2=O)c1O [Compound 85]	–	–	–	–	> 70%	< 70%	> 70%	< 70%
CCC[C@H]1CCC[C@H](NC(=O)c2nccc(OC)c2O)C(=O)O[C@@H](C)[C@@H]1c1ccccc1 [Compound 91]	–	–	–	–	> 70%	> 70%	> 70%	< 70%
COc1ccnc(C(=O)N[C@H]2CCC[C@H](Cc3ccccc3)[C@@H](Cc3ccc(F)cc3)[C@H](C)OC2=O)c1OCOC(C)=O [Compound 63]	> 70%	> 70%	> 70%	< 70%	–	–	–	–
COc1ccnc(C(=O)N[C@H]2CCC[C@H](Cc3ccc(Cl)cc3)[C@@H](C3CCCC3)[C@H](C)OC2=O)c1O [Compound 84]	–	–	–	–	> 70%	> 70%	> 70%	< 70%
COc1ccnc(C(=O)N[C@H]2CCC[C@H](Cc3ccccc3)[C@@H](Cc3ccccc3)[C@H](C)OC2=O)c1OC(C)=O [Compound 5]	> 70%	> 70%	> 70%	> 70%	–	–	–	–
COc1ccnc(C(=O)N[C@H]2CCC[C@H](Cc3ccc(C(F)(F)F)cc3)[C@@H](Cc3ccc(OC(F)(F)F)cc3)[C@H](C)OC2=O)c1OC(C)=O [Compound 67]	< 70%	< 70%	< 70%	< 70%	–	–	–	–
COc1ccnc(C(=O)N[C@H]2CCC[C@H](Cc3ccccc3)[C@@H](Cc3ccc(F)cc3)[C@H](C)OC2=O)c1O [Compound 95]	> 70%	> 70%	> 70%	< 70%	–	–	–	–
